Reference: patent publication US10167284B2, “Spirocyclic compounds as agonists of the muscarinic M1 receptor and/or M4 receptor” (HEPTARES THERAPEUTICS LIMITED, priority 2015, dated 2019)

Key:
[1] = molecular target: T1, human muscarinic M1 receptor (Homo sapiens, UniProt P11229); assay: Alphascreen Surefire phospho-ERK1/2 functional assay, M1; format: cell-based; settings: for EC50 / M1 % Emax cf. ACh: CHO cells stably expressing human M1; for EC50: phospho-ERK1/2, read-out: pEC50 M1 (converted); for Emax: CHO, read-out: M1 % Emax cf. ACh, CHO cells stably expressing human M1; for Emax / M1 % Emax cf. ACh: Emax relative to ACh
T1 construct: expressed in transfected cells
T1 sequence (P11229 1-460): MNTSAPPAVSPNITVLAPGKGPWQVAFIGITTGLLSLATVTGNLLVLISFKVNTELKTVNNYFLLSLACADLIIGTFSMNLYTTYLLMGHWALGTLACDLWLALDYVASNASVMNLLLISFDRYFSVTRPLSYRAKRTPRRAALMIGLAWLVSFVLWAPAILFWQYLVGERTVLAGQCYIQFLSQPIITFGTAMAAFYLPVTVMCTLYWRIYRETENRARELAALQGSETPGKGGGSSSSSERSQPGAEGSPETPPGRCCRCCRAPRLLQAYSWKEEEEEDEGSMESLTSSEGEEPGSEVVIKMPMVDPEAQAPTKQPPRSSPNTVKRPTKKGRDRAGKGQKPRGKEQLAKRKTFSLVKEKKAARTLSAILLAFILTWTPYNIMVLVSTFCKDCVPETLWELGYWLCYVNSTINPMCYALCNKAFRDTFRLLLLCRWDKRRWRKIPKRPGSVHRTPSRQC
Method: (§1) CHO cells stably expressing the human muscarinic M1, M2, M3 or M4 receptor were plated (25K/well) onto 96-well tissue culture plates in MEM-alpha+10% dialysed FBS. Once adhered, cells were serum-starved overnight. Agonist stimulation was performed by the addition of 5 μL agonist to the cells for 5 min (37° C.). Media was removed and 50 μL of lysis buffer added. After 15 min, a 4 μL sample was transferred to 384-well plate and 7 μL of detection mixture added. Plates were incubated for 2 h with gentle agitation in the dark and then read on a PHERAstar plate reader.
(§2) pEC50 and Emax figures were calculated from the resulting data for each receptor subtype.

[2] = molecular target: T2, human muscarinic M4 receptor (Homo sapiens, UniProt P08173); assay: Alphascreen Surefire phospho-ERK1/2 functional assay, M4; format: cell-based; settings: for EC50 / M4 % Emax cf. ACh: CHO cells stably expressing human M4; for EC50: phospho-ERK1/2, read-out: pEC50 M4 (converted); for Emax: CHO, read-out: M4 % Emax cf. ACh, CHO cells stably expressing human M4; for Emax / M4 % Emax cf. ACh: Emax relative to ACh
T2 construct: expressed in transfected cells
T2 sequence (P08173 1-479): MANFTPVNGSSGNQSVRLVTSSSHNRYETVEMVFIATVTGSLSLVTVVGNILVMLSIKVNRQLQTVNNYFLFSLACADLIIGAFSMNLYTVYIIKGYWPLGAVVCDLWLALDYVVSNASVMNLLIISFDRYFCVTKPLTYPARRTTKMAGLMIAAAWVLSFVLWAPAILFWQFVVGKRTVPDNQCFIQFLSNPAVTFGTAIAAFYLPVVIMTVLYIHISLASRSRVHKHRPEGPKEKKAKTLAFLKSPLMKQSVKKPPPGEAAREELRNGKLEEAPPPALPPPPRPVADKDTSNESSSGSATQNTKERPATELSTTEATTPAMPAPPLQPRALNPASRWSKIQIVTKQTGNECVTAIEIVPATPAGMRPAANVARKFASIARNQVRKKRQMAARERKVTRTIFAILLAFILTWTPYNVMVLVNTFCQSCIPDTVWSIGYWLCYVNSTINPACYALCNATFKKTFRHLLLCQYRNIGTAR

[3] = molecular target: T3, human muscarinic M2 receptor (Homo sapiens, UniProt P08172); assay: Alphascreen Surefire phospho-ERK1/2 functional assay, M2; settings: for Emax: CHO, read-out: M2 % Emax cf. ACh, CHO cells stably expressing human M2; for Emax / M2 % Emax cf. ACh: Emax relative to ACh; for EC50: pEC50 M2, CHO cells stably expressing human M2; for EC50 / pEC50 M2: phospho-ERK1/2; for M2 % Emax cf. ACh / pEC50 M2: CHO cells stably expressing human M2
T3 sequence (P08172 1-466): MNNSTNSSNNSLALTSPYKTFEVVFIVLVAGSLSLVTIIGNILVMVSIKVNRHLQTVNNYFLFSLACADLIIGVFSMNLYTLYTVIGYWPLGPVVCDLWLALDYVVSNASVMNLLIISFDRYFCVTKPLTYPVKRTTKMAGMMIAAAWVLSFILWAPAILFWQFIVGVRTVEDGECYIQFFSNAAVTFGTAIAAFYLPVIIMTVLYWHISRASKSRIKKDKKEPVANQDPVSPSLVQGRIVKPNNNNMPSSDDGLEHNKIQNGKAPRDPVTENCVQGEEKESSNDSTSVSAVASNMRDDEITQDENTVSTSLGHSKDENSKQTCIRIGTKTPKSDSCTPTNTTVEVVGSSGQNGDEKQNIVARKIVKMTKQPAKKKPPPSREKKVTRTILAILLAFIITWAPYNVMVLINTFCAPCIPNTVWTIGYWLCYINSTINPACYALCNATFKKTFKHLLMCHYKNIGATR
Method: as §1, §2

[4] = molecular target: human muscarinic M3 receptor (Homo sapiens, UniProt P20309); assay: Alphascreen Surefire phospho-ERK1/2 functional assay, M3; settings: for Emax: CHO, read-out: M3 % Emax cf. ACh, CHO cells stably expressing human M3; for Emax / M3 % Emax cf. ACh: Emax relative to ACh; for M3 % Emax cf. ACh / pEC50 M3: CHO cells stably expressing human M3; for pEC50 M3: phospho-ERK1/2
Chain of human muscarinic M3 receptor (P20309 whole entry): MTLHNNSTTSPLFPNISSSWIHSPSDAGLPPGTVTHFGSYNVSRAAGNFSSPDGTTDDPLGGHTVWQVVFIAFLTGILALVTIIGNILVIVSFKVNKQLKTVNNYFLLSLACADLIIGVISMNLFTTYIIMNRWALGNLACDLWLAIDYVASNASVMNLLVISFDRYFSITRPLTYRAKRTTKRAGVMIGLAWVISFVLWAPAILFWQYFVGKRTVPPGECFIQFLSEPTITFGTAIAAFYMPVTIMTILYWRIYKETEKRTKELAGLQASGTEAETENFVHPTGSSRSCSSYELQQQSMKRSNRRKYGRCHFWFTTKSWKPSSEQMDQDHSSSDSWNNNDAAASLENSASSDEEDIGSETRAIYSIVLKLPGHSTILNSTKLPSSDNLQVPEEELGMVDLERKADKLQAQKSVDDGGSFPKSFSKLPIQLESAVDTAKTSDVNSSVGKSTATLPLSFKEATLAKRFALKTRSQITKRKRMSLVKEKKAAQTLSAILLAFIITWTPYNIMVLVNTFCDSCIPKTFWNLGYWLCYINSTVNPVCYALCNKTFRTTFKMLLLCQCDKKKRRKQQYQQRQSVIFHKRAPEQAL
Method: as §1, §2

| Compound | EC50 [1] [nM] | Emax [1] [%] | EC50 [2] [nM] | Emax [2] [%] | Emax [3] [%] | EC50 [3] [nM] | EC50 [4] [nM] | Emax [4] [%] | M1 % Emax cf. ACh [1] | M4 % Emax cf. ACh [2] | M2 % Emax cf. ACh [3] | pEC50 M2 [3] | M3 % Emax cf. ACh [4] | pEC50 M3 [4] |
| --- | --- | --- | --- | --- | --- | --- | --- | --- | --- | --- | --- | --- | --- | --- |
| CCCN1CC2(CCN(C3CC4(CCN(C(=O)OCC)C4)C3)CC2)OC1=O (single isomer, unassigned) [4-7 Isomer 2] | 631 | 104 | 501 | 69 | 41 | > 20000 | > 20000 | 2 | – | – | – | – | – | – |
| CCOC(=O)N1CCC2(CC(N3CCC4(CC3)OC(=O)N3CCCC34)C2)C1 (single isomer, unassigned) [4-44 Isomer 4] | 1260 | – | 79.4 | – | – | – | – | – | (67) % | (97) % | (14) % | <4.7 | (10) % | <4.7 |
| CCOC(=O)N1CCC2(CC(N3CCC4(CC3)OC(=O)NC43CCCC3)C2)C1 (single isomer, unassigned) [4-31 Isomer 2] | 794 | 66 | 31.6 | 88 | 4 | > 20000 | > 20000 | 4 | – | – | – | – | – | – |
| CCOC(=O)N1CC2(CC(N3CCC4(CC3)OC(=O)N(CC)C4CC)C2)C1 (racemic) [2-2 racemic] | 2000 | 74 | 200 | 69 | 71 | > 20000 | > 20000 | 27 | – | – | – | – | – | – |
| CCOC(=O)N1CCC2(CC(N3CCC4(CC3)OC(=O)N(C)C4CC)C2)C1 (single isomer, unassigned) [4-20 Isomer 3] | 158 | – | 31.6 | – | 10 | > 20000 | > 20000 | 4 | (97) % | (59) % | – | – | – | – |
| CCOC(=O)N1CCC2(CC(N3CCC4(CC3)CC(=O)NC4Cc3ccccc3)C2)C1 (single isomer, unassigned) [3-8 Isomer 2] | 12.6 | 110 | 79.4 | 98 | 33 | > 20000 | > 20000 | 53 | – | – | – | – | – | – |
| CCOC(=O)N1CCC2(CC(N3CCC4(CC3)CC(=O)NC4CC)C2)C1 (single isomer, unassigned) [3-5 Isomer 2] | 25.1 | 96 | 3.16 | 108 | 16 | > 20000 | > 20000 | 10 | – | – | – | – | – | – |
| CCOC(=O)N1CCC2(CC(N3CCC4(CC3)OC(=O)N3CCCC34)C2)C1 (single isomer, unassigned) [4-44 Isomer 3] | 200 | – | 50.1 | – | 7 | > 20000 | > 20000 | – | (40) % | (43) % | – | – | (3) % | – |
| CCOC(=O)N1CCC2(CC(N3CCC4(CC3)OC(=O)NC4CC(F)(F)F)C2)C1 (single isomer, unassigned) [4-17 Isomer 1 (racemic)] | 126 | 114 | 31.6 | 107 | 54 | > 20000 | > 20000 | 14 | – | – | – | – | – | – |
| CCOC(=O)N1CCC2(CC(N3CCC4(CC3)CC(=O)NN4CC)C2)C1 (single isomer, unassigned) [6-2 Isomer 2] | 63.1 | 109 | 20 | 114 | 0 | > 20000 | > 20000 | 10 | – | – | – | – | – | – |
| CCN1C(=O)OC2(CCN(C3CC4(CCN(C(=O)OC)C4)C3)CC2)C1(C)C (single isomer, unassigned) [4-34 Isomer 2] | 2000 | 34 | 100 | 83 | 2 | > 20000 | > 20000 | 1 | – | – | – | – | – | – |
| CCN1NC(=O)CC12CCN(C1CC3(CCN(C(=O)OC)C3)C1)CC2 (single isomer, unassigned) [6-1 Isomer 2] | 631 | 77 | 126 | 68 | 13 | > 20000 | > 20000 | 11 | – | – | – | – | – | – |
| CCOC(=O)N1CCC2(CC(N3CCC4(CC3)OC(=O)N(CC(C)C)C4(C)C)C2)C1 (single isomer, unassigned) [4-38 Isomer 2] | > 20000 | – | 31.6 | – | – | – | – | – | (25) % | (95) % | (3) % | <4.7 | (1) % | <4.7 |
| CCOC(=O)N1CCC2(CC(N3CCC4(CC3)OC(=O)NC4CC)C2)C1 (single isomer, unassigned) [4-12 Isomer 1] | > 20000 | – | 79.4 | – | – | > 20000 | > 20000 | 4 | (17) % | (63) % | (50) % | – | – | – |
| CCOC(=O)N1CCC2(CC(N3CCC4(CC3)OC(=O)NC4CC)C2)C1 (single isomer, unassigned) [4-12 Isomer 3] | 25.1 | – | 6.31 | – | – | > 6310 | – | – | (111) % | (118) % | (20) % | – | (8) % | <4.7 |
| CCC1NC(=O)CC12CCN(C1CC3(CCN(C(=O)OC)C3)C1)CC2 (single isomer, unassigned) [3-4 Isomer 4] | 63.1 | – | 6.31 | – | – | – | – | – | (90) % | (76) % | (20) % | <4.7 | (17) % | <4.7 |
| CCOC(=O)N1CCC2(CC(N3CCC4(CC3)OC(=O)N(CC)C4CC)C2)C1 (single isomer, unassigned) [4-22 Isomer 3] | 200 | – | 31.6 | – | – | > 20000 | > 20000 | 1 | (95) % | (80) % | (3) % | – | – | – |
| CCOC(=O)N1CCC2(CC(N3CCC4(CC3)OC(=O)N(CC(F)(F)F)C4(C)C)C2)C1 (single isomer, unassigned) [4-43 Isomer 2] | > 20000 | 6 | 79.4 | 75 | 5 | > 20000 | > 20000 | 6 | – | – | – | – | – | – |
| CCOC(=O)N1CCC2(CC(N3CCC4(CC3)CNC(=O)O4)C2)C1 (single isomer, unassigned) [4-3 Isomer 2] | 20 | – | 39.8 | – | 0 | > 20000 | > 20000 | 7 | (116) % | (78) % | – | – | – | – |
| CCOC(=O)N1CCC2(CC(N3CCC4(CC3)OC(=O)N(CC)C4CC)C2)C1 (single isomer, unassigned) [4-22 Isomer 4] | 200 | – | 50.1 | – | – | – | – | – | (104) % | (113) % | (23) % | <4.7 | (2) % | <4.7 |
